ChEMBL document CHEMBL3414557, “Synthesis, molecular docking and Brugia malayi thymidylate kinase (BmTMK) enzyme inhibition study of novel derivatives of [6]-shogaol” (Eur J Med Chem, 2015)
The source made the active and inactive calls. No cut-off for these calls is given here.

Target: not listed separately
Assay: (§1) Inhibition of Brugia malayi thymidylate kinase using dTMP substrate by spectrophotometric assay

Ki [µM]	Compound
20.3	CCCCCC(CC(=O)CCc1ccc(OC(=O)c2ccco2)c(OC)c1)n1cc(C)c(=O)n(C(=O)c2ccco2)c1=O (centres undefined)
11.1	CCCCCC(CC(=O)CCc1ccc(O)c(OC)c1)Nc1ncccc1C (centres undefined)
44.4	CCCCCC(CC(=O)CCc1ccc(OC(=O)/C=C/c2ccc(F)cc2)c(OC)c1)n1cc(C)c(=O)[nH]c1=O (centres undefined)
20.1	CCCCCC(CC(=O)CCc1ccc(OC(=O)c2ccc(OC)cc2)c(OC)c1)n1cc(C)c(=O)n(C(=O)c2ccc(OC)cc2)c1=O (centres undefined)
10.8	CCCCC/C=C/C(=O)CCc1ccc(O)c(OC)c1 [SHOGAOL]
9.01	CCCCCC(CC(=O)CCc1ccc(O)c(OC)c1)n1cnc2c(N)ncnc21 (centres undefined)
30.4	CCCCCC(CC(=O)CCc1ccc(OC(=O)c2ccc(Cl)nc2)c(OC)c1)Nc1cc(C)ccn1 (centres undefined)
6.57	CCCCCC(CC(=O)CCc1ccc(O)c(OC)c1)n1cc(C)c(=O)[nH]c1=O (centres undefined)
8.32	CCCCCC(CC(=O)CCc1ccc(O)c(OC)c1)n1cc(Br)c(=O)[nH]c1=O (centres undefined)
45.7	CCCCCC(CC(=O)CCc1ccc(OS(=O)(=O)c2ccc(C)cc2)c(OC)c1)n1cc(C)c(=O)[nH]c1=O (centres undefined)
66.1	CCCCCC(CC(=O)CCc1ccc(OS(C)(=O)=O)c(OC)c1)n1cc(C)c(=O)[nH]c1=O (centres undefined)
40.6	CCCCCC(CC(=O)CCc1ccc(O)c(OC)c1)Nc1ccc(C)cn1 (centres undefined)
21.6	CCCCCC(CC(=O)CCc1ccc(O)c(OC)c1)Nc1cc(C)ccn1 (centres undefined)

System: Brugia malayi
Assay: as §1

inhibition	Compound
inactive	CCCCCC(CC(=O)CCc1ccc(OC(=O)c2ccc(Cl)nc2)c(OC)c1)n1cc(C)c(=O)[nH]c1=O (centres undefined)
